Test results reported in paper PMC11954145, “Antimicrobial and ADME properties of methoxylated, methylated and nitrated 2-hydroxynaphthalene-1 carboxanilides” (ADMET & DMPK, 2025).
≈ marks a conversion by molar mass, not a printed value. Where “and” joins values, the source holds several entries; their conditions need not be identical. Identical values can stand only once. Like-named read-outs stand apart in the source and are kept apart here.

How the values were obtained:
[1] = Lipophilicity determination by RP-HPLC (log k, log D); assay type: physicochemical; conditions: for log D6.5: RP-HPLC C18, MeOH 72 % / acetate-buffered saline pH 6.5; for log D7.4: RP-HPLC C18, MeOH 72 % / acetate-buffered saline pH 7.4; for log k (logarithm of the capacity factor): RP-HPLC C18, MeOH 72 % / water 28 %
Description: An HPLC system Agilent 1200 equipped with a DAD detector (Agilent, Santa Clara, CA, USA) was used. A chromatographic column Symmetry® C18 5 μm, 4.6×250 mm, part No. WAT054275 (Waters Corp., Milford, MA, USA) was used. The HPLC separation process was monitored and evaluated with EZChrom Elite software ver. 3.3.2 (Agilent). Isocratic elution by a mixture of MeOH p.a. (72 %) and H2O-HPLC Mili-Q grade (28 %) as a mobile phase was used for the determination of capacity factor k. Isocratic elution by a mixture of MeOH p.a. (72 %) and acetate-buffered saline (pH 7.4 and pH 6.5) (28 %) as a mobile phase was used for the determination of distribution coefficients expressed as D7.4 and D6.5. The total flow of the column was 1.0 mL min^-1, the injection volume was 20 μL, the column temperature was 40 °C, and the sample temperature was 10 °C. The detection wavelength of 210 nm was chosen. A KI methanolic solution was used to determine the dead times (tD). Retention times (tR) were measured in minutes. The capacity factors k were calculated according to the formula k = (tR–tD)/tD, where tR is the retention time of the solute, and tD is the dead time obtained using an unretained analyte. The distribution coefficients DpH were calculated according to the formula DpH = (tR–tD)/tD. Each experiment was repeated three times.
The capacity factor and distribution coefficients were measured by RP-HPLC on a C18 column with methanol as an organic modifier of the mobile phase. In addition to the experimental lipophilicities, predicted log P values were also calculated using ACD/Percepta, see Table 1. […] The values of σ(Ar) are found in a wide range from 0.01 to 1.36, so the compounds contain substituents with both electron-donating and slightly electron-withdrawing properties.

S. aureus ATCC 29213 = assay: Antibacterial screening, broth microdilution MIC; assay type: cell-based; conditions: Staphylococcus aureus, read-out: MIC S. aureus
MRSA 63718 = assay: Antibacterial screening, broth microdilution MIC; assay type: cell-based, methicillin-resistant S. aureus; conditions: Staphylococcus aureus, read-out: MIC MRSA 63718
MRSA SA 630 = assay: Antibacterial screening, broth microdilution MIC; assay type: cell-based, methicillin-resistant S. aureus; conditions: Staphylococcus aureus, read-out: MIC MRSA SA 630
MRSA SA 3202 = assay: Antibacterial screening, broth microdilution MIC; assay type: cell-based, methicillin-resistant S. aureus; conditions: Staphylococcus aureus, read-out: MIC MRSA SA 3202
[2] = system: Enterococcus faecalis ATCC 29212; assay: Antibacterial screening, broth microdilution MIC; assay type: cell-based; conditions: read-out: MIC E. faecalis
VRE 342B = assay: Antibacterial screening, broth microdilution MIC; assay type: cell-based, vancomycin-resistant E. faecalis; conditions: Enterococcus, vanA isolate, 24 h at 37 °C, read-out: MIC VRE 342B
VRE 725B = assay: Antibacterial screening, broth microdilution MIC; assay type: cell-based, vancomycin-resistant E. faecalis; conditions: Enterococcus, vanA isolate, 24 h at 37 °C, read-out: MIC VRE 725B
VRE 368 = assay: Antibacterial screening, broth microdilution MIC; assay type: cell-based, vancomycin-resistant E. faecalis; conditions: Enterococcus, vanA isolate, 24 h at 37 °C, read-out: MIC VRE 368
E. coli ATCC 25922 = assay: Antibacterial screening, broth microdilution MIC; assay type: cell-based; conditions: Escherichia coli, ATCC25922; ATCC 25922, 24 h at 37 °C
[3] = system: Mycobacterium tuberculosis ATCC 25177/H37Ra; assay: Antimycobacterial screening, broth dilution MIC (Alamar blue); assay type: cell-based; conditions: 336 h, H37Ra, 14 days at 37 °C, Alamar blue, read-out: MIC M. tuberculosis
Description: The evaluation of in vitro antimycobacterial activity of the compounds was performed against Mycobacterium tuberculosis ATCC 25177/H37Ra, Mycobacterium kansasii DSM 44162 and Mycobacterium smegmatis ATCC 700084.
The broth dilution micro-method in Middlebrook 7H9 medium (Difco, Lawrence, KS, USA) supplemented with ADC Enrichment (Difco) was used to determine the minimum inhibitory concentration (MIC) as previously described. […] The final concentrations of the evaluated compounds, ranging from 256 to 0.125 μg mL^-1, were obtained by twofold serial dilution of the stock solution in a microtiter plate with a sterile medium. Bacterial inocula were prepared by transferring colonies from culture to sterile water. The plate was inoculated by tested microorganisms. The final concentration of bacterial cells was 1.5×10^6 for M. tuberculosis and 10^5 cells in a microtiter plate for other mycobacteria. Isoniazid and rifampicin (Sigma) were used as reference antimycobacterial drugs. Drug-free controls, sterility controls, and controls consisting of medium and DMSO alone were included. The plates were incubated for a defined time at an appropriate temperature (3 days at 37 °C for M. smegmatis, and 14 days at 37 °C for M. tuberculosis and M. kansasii). […] The MICs against M. tuberculosis were evaluated by Alamar blue (Oxoid). After incubation, 10 % of Alamar blue was added to each well, and the plate was incubated for 24 h. The MIC values were assessed as the lowest concentration of the tested compounds, which prevented changing blue resazurin to pink resorufin. The experiments were repeated three times. The minimum inhibitory concentrations (MICs) were defined as the lowest concentration of the compound at which no visible bacterial growth was observed. The MIC value is routinely and widely used in bacterial assays and is a standard detection limit according to the CLSI [60].

[4] = system: Mycobacterium kansasii DSM 44162; assay: Antimycobacterial screening, broth dilution MIC; assay type: cell-based; conditions: DSM44162, 336 h, read-out: MIC M. kansasii
[5] = system: Mycobacterium smegmatis ATCC 700084; assay: Antimycobacterial screening, broth dilution MIC; assay type: cell-based; conditions: Mycolicibacterium smegmatis, ATCC700084, 72 h, read-out: MIC M. smegmatis
[6] = ATCC29213, ATCC 29213, 24 h at 37 °C
[7] = clinical isolate, 24 h at 37 °C
[8] = ATCC29212, ATCC 29212, 24 h at 37 °C

SMILES | log D6.5 [1] | log D7.4 [1] | log k (logarithm of the capacity factor) [1] | MIC (S. aureus ATCC 29213; [6]) | MIC (MRSA 63718; [7]) | MIC (MRSA SA 630; [7]) | MIC (MRSA SA 3202; [7]) | MIC [2, 8] | MIC (VRE 342B) | MIC (VRE 725B) | MIC (VRE 368) | MIC (E. coli ATCC 25922) | MIC [3] | MIC ([4]; DSM 44162, 14 days at 37 °C) | MIC ([5]; ATCC 700084, 3 days at 37 °C) | MIC [4] | also measured
Cc1ccc(C)c(NC(=O)c2c(O)ccc3ccccc23)c1 [Compound 11, N-(2,5-Dimethylphenyl)-2-hydroxynaphthalene-1-carboxamide] | 0.2455 | 0.2514 | 0.2486 | 110 µM (≈ 32 µg/mL) | 110 µM (≈ 32 µg/mL) | 110 µM (≈ 32 µg/mL) | 110 µM (≈ 32 µg/mL) | 879 µM (≈ 256 µg/mL) | 879 µM (≈ 256 µg/mL) | 879 µM (≈ 256 µg/mL) | 879 µM (≈ 256 µg/mL) | 879 µM (≈ 256 µg/mL) | 439 µM (≈ 128 µg/mL) | 110 µM (≈ 32 µg/mL) | 220 µM (≈ 64.1 µg/mL) | – | –
COc1ccc(C)c(NC(=O)c2c(O)ccc3ccccc23)c1 [Compound 17, 2-Hydroxy-N-(5-methoxy-2-methylphenyl)naphthalene-1-carboxamide] | 0.1047 | 0.1113 | 0.0892 | 104 µM (≈ 32 µg/mL) | – | 208 µM (≈ 63.9 µg/mL) | 208 µM (≈ 63.9 µg/mL) | 833 µM (≈ 256 µg/mL) | 833 µM (≈ 256 µg/mL) | 833 µM (≈ 256 µg/mL) | 833 µM (≈ 256 µg/mL) | 833 µM (≈ 256 µg/mL) | 416 µM (≈ 128 µg/mL) | – | – | 833 µM (≈ 256 µg/mL) | MIC (MRSA 63718; 24 h): 416 µM (≈ 128 µg/mL); MIC [5]: 416 µM (≈ 128 µg/mL)
COc1ccc(NC(=O)c2c(O)ccc3ccccc23)cc1C(F)(F)F [Compound 21, 2-Hydroxy-N-[4-methoxy-3-(trifluoromethyl)phenyl]naphthalene-1-carboxamide] | 0.1704 | 0.1745 | 0.16 and 0.1635 | 88.6 µM (≈ 32 µg/mL) | 177 µM (≈ 64 µg/mL) | 88.6 µM (≈ 32 µg/mL) | 88.6 µM (≈ 32 µg/mL) | 88.6 µM (≈ 32 µg/mL) | 177 µM (≈ 64 µg/mL) | 88.6 µM (≈ 32 µg/mL) | 88.6 µM (≈ 32 µg/mL) | 709 µM (≈ 256 µg/mL) | 354 µM (≈ 128 µg/mL) | 709 µM (≈ 256 µg/mL) | 177 µM (≈ 64 µg/mL) | – | –
COc1cccc(C)c1NC(=O)c1c(O)ccc2ccccc12 [Compound 16, 2-Hydroxy-N-(2-methoxy-6-methylphenyl)naphthalene-1-carboxamide] | 0.0284 | 0.0382 | 0.0124 | 833 µM (≈ 256 µg/mL) | 833 µM (≈ 256 µg/mL) | 833 µM (≈ 256 µg/mL) | 833 µM (≈ 256 µg/mL) | – | 208 µM (≈ 63.9 µg/mL) | 833 µM (≈ 256 µg/mL) | 208 µM (≈ 63.9 µg/mL) | 833 µM (≈ 256 µg/mL) | 416 µM (≈ 128 µg/mL) | – | – | 833 µM (≈ 256 µg/mL) | MIC ([2]; ATCC29212, 24 h): 416 µM (≈ 128 µg/mL); MIC [5]: 416 µM (≈ 128 µg/mL)
Cc1ccc(NC(=O)c2c(O)ccc3ccccc23)cc1C(F)(F)F [Compound 23, 2-Hydroxy-N-[4-methyl-3-(trifluoromethyl)phenyl]naphthalene-1-carboxamide] | 0.4621 | 0.4636 | 0.46 and 0.4605 | 23.2 µM (≈ 8.01 µg/mL) | – | 92.7 µM (≈ 32 µg/mL) | 46.3 µM (≈ 16 µg/mL) | 741 µM (≈ 256 µg/mL) | 741 µM (≈ 256 µg/mL) | 741 µM (≈ 256 µg/mL) | 741 µM (≈ 256 µg/mL) | 741 µM (≈ 256 µg/mL) | 371 µM (≈ 128 µg/mL) | 741 µM (≈ 256 µg/mL) | 46.3 µM (≈ 16 µg/mL) | – | MIC (MRSA 63718; 24 h): 371 µM (≈ 128 µg/mL)
COc1ccc(NC(=O)c2c(O)ccc3ccccc23)cc1 [Compound 4, 2-hydroxy-N-(4-methoxyphenyl)naphthalene-1-carboxamide] | -0.0491 | -0.0382 | -0.0380 | > 873 µM | > 873 µM | > 873 µM | > 873 µM | > 873 µM | > 873 µM | > 873 µM | > 873 µM | 873 µM (≈ 256 µg/mL) | 109 µM (≈ 32 µg/mL) | 218 µM (≈ 63.9 µg/mL) | 436 µM (≈ 128 µg/mL) | – | –
Cc1cccc(C)c1NC(=O)c1c(O)ccc2ccccc12 [Compound 12, N-(2,6-Dimethylphenyl)-2-hydroxynaphthalene-1-carboxamide] | 0.0838 | 0.0923 | 0.0785 | – | 879 µM (≈ 256 µg/mL) | – | – | 879 µM (≈ 256 µg/mL) | 879 µM (≈ 256 µg/mL) | 879 µM (≈ 256 µg/mL) | 879 µM (≈ 256 µg/mL) | 879 µM (≈ 256 µg/mL) | 439 µM (≈ 128 µg/mL) | 879 µM (≈ 256 µg/mL) | 879 µM (≈ 256 µg/mL) | – | MIC (S. aureus ATCC 29213; ATCC29213, 24 h): 439 µM (≈ 128 µg/mL); MIC (MRSA SA 630; 24 h): 439 µM (≈ 128 µg/mL); MIC (MRSA SA 3202; 24 h): 439 µM (≈ 128 µg/mL)
COc1ccc(C)cc1NC(=O)c1c(O)ccc2ccccc12 [Compound 15, 2-Hydroxy-N-(2-methoxy-5-methylphenyl)naphthalene-1-carboxamide] | 0.4974 | 0.5012 | 0.4932 | 833 µM (≈ 256 µg/mL) | 833 µM (≈ 256 µg/mL) | 833 µM (≈ 256 µg/mL) | 833 µM (≈ 256 µg/mL) | 833 µM (≈ 256 µg/mL) | 833 µM (≈ 256 µg/mL) | 833 µM (≈ 256 µg/mL) | 833 µM (≈ 256 µg/mL) | 833 µM (≈ 256 µg/mL) | 416 µM (≈ 128 µg/mL) | – | 833 µM (≈ 256 µg/mL) | 833 µM (≈ 256 µg/mL) | –
COc1ccc(OC)c(NC(=O)c2c(O)ccc3ccccc23)c1 [Compound 5, N-(2,5-Dimethoxyphenyl)-2-hydroxynaphthalene-1-carboxamide] | 0.3263 | 0.3310 | 0.3353 | 792 µM (≈ 256 µg/mL) | 792 µM (≈ 256 µg/mL) | 792 µM (≈ 256 µg/mL) | 792 µM (≈ 256 µg/mL) | 792 µM (≈ 256 µg/mL) | 792 µM (≈ 256 µg/mL) | 792 µM (≈ 256 µg/mL) | 792 µM (≈ 256 µg/mL) | 792 µM (≈ 256 µg/mL) | 396 µM (≈ 128 µg/mL) | 792 µM (≈ 256 µg/mL) | 792 µM (≈ 256 µg/mL) | – | –
